Here are results for 10 compounds from article PMC6213900, “Design, Synthesis, and Cytotoxic Analysis of Novel Hederagenin–Pyrazine Derivatives Based on Partial Least Squares Discriminant Analysis” (International Journal of Molecular Sciences, 2018).

Bounds are passed on as bounds.

Data set [1] deals with HepG2 (human hepatocellular carcinoma). Put plainly: MTT cytotoxicity assay, HepG2. The format is cell-based. Conditions: Homo sapiens, HepG2; MTT, 72 h treatment; read-out: Half Maximal Inhibitory Concentration (IC50) HepG2. The procedure:
(§1) The cytotoxicity of hederagenin derivatives in vitro was evaluated on three tumor cell lines (A549: human non-small-cell lung cancer; MCF-7: human mammary cancer; HepG2: human hepatocellular carcinoma) using the 3-(4,5-dimethylthiazol-2-yl)-2,5-diphenyltetrazolium bromide (MTT) assay. In addition, their toxicity evaluations were tested on H9c2 (murine heart myoblast) and MDCK (Madin–Darby canine kidney) cells. MCF-7, A549, HepG2, H9c2, and MDCK cells were obtained from the Chinese Academy of Medical Sciences and Peking Union Medical College. All of the cell lines were maintained in Dulbecco’s modified Eagle medium (DMEM) supplemented with 1% (v/v) penicillin/streptomycin and 10% (v/v) fetal bovine serum (FBS; Thermo Technologies, New York, NY, USA) under a humidified atmosphere containing 5% CO2 at 37 °C. The stock solutions of He derivatives were dissolved in dimethyl sulfoxide (DMSO; Sigma, St. Louis, MO, USA) and added at various concentrations to the cell culture. Cellular morphologies were observed using an inverted fluorescence microscope (Olympus IX71, Tokyo, Japan), a plate reader (BIORAD 550 spectrophotometer, Bio-rad Life Science Development Ltd., Beijing, China), and a Canton 2 flow cytometer (BD, New York, NY, USA). The antitumor activity of these compounds were evaluated on MCF-7, A549, HepG2, MDCK, and H9c2 cell lines using the MTT assay. Cells at a density of 3 × 10^3 cells/well were plated in a 96-multiwell plate in DMEM containing 10% FBS for 24 h at 37 °C with 5% CO2. Then, cells were treated for 72 h with the required concentrations (3.125, 6.25, 12.5, 25, or 50 μM) of the compounds and reference drugs (He and DDP) dissolved with the vehicle DMSO. After that, the culture substrate was replaced with 200 μL of DMEM containing 20 μL of MTT solution at 5 mg/mL and incubated for 4 h. The supernatant was removed and the dissolved formazans precipitated with 120 μL of DMSO. Wells without drugs were used as blanks. A plate reader was used to determine the absorbance at 490 nm. The above steps were repeated three times. The IC50 values were defined as the concentration of the compound which gave 50% growth inhibition, and they were calculated using Graph Pad Prism 5. The inhibition rate was calculated using the following formula, where OD is the optical density:% inhibition = 1 − (Sample group OD/Control group OD) × 100%. (1)

Data set [2] has as its system MDCK (Madin–Darby canine kidney) cells. Put plainly: MTT toxicity evaluation, MDCK. Conditions: Canis lupus familiaris, MDCK, 72 h treatment, non-tumor cells, read-out: Half Maximal Inhibitory Concentration (IC50) MDCK. Format: cell-based. The procedure: as §1
Data set [3] has as its system H9c2 (murine heart myoblast). Put plainly: MTT toxicity evaluation, H9c2. The format is cell-based. Conditions: H9c2, 72 h treatment, non-tumor cells, read-out: Half Maximal Inhibitory Concentration (IC50) H9c2. The procedure: as §1
Data set [4] concerns A549 (human non-small-cell lung cancer). Briefly: MTT cytotoxicity assay, A549. The format is cell-based. As to conditions: Homo sapiens, A549, 72 h treatment, read-out: Half Maximal Inhibitory Concentration (IC50) A549. The procedure:
as §1

Data set [5] relates to MCF-7 (human mammary cancer). Briefly: MTT cytotoxicity assay, MCF-7. Format: cell-based. As to conditions: Homo sapiens, MCF7, 72 h treatment, read-out: Half Maximal Inhibitory Concentration (IC50) MCF-7. The procedure: as §1

On to `Cc1cnc(C(=O)OCCCCOC(=O)[C@]23CCC(C)(C)CC2C2=CCC4[C@@]5(C)CC[C@H](O)[C@@](C)(CO)C5CC[C@@]4(C)[C@]2(C)CC3)cn1` (stereo partly drawn) [Compound 16, 4-(((4aS,6aS,6bR,9R,10S,12aR)-10-Hydroxy-9-(hydroxymethyl)-2,2,6a,6b,9,12a-hexamethyl-1,2,3,4,4a,5,6,6a,6b,7,8,8a,9,10,11,12,12a,12b,13,14b-icosahydropicene-4a-carbonyl)oxy)butyl-5-methylpyrazine-2-carboxylate], for which the melting point – broadly, the temperature, or range, at which the solid turns liquid – came to 166.1 °C. For the same compound, the IC50 in data set [1] was 6.99 ± 0.63 µM. Besides, in data set [2], the IC50 was determined as 20.12 ± 0.06 µM. Further, in data set [3], the IC50 was found to be 14.99 ± 0.12 µM. Besides, the IC50 in data set [4] stood at 24.8 ± 0.66 µM. In addition, in data set [5], the IC50 turned out to be 28.49 ± 0.28 µM.
In turn, `Cc1nccnc1C(=O)OCCCCOC(=O)[C@]12CCC(C)(C)CC1C1=CCC3[C@@]4(C)CC[C@H](O)[C@@](C)(CO)C4CC[C@@]3(C)[C@]1(C)CC2` (stereo partly drawn) [Compound 17, 4-(((4aS,6aS,6bR,9R,10S,12aR)-10-Hydroxy-9-(hydroxymethyl)-2,2,6a,6b,9,12a-hexamethyl-1,2,3,4,4a,5,6,6a,6b,7,8,8a,9,10,11,12,12a,12b,13,14b-icosahydropicene-4a-carbonyl)oxy)butyl-3-methylpyrazine-2-carboxylate] returned a melting point of 145.2 °C. The IC50 in data set [1] came out at 8.15 ± 0.22 µM. Moreover, the IC50 in data set [2] was 20.9 ± 3.03 µM. Besides, in data set [3], the IC50 came out at 22.3 ± 0.3 µM. Further, the IC50 in data set [4] was determined as 19.6 ± 0.22 µM. Also, the IC50 in data set [5] was 22.9 ± 0.66 µM.
In the case of `Cc1ncc(C(=O)OCCCCOC(=O)[C@]23CCC(C)(C)CC2C2=CCC4[C@@]5(C)CC[C@H](O)[C@@](C)(CO)C5CC[C@@]4(C)[C@]2(C)CC3)nc1C` (stereo partly drawn) [Compound 18, 4-(((4aS,6aS,6bR,9R,10S,12aR)-10-Hydroxy-9-(hydroxymethyl)-2,2,6a,6b,9,12a-hexamethyl-1,2,3,4,4a,5,6,6a,6b,7,8,8a,9,10,11,12,12a,12b,13,14b-icosahydropicene-4a-carbonyl)oxy)butyl-5,6-dimethylpyrazine-2-carboxylate], the melting point is 134.7 °C. In data set [1], the IC50 turned out to be 11.9 ± 0.99 µM. In data set [2], the IC50 turned out to be 16.6 ± 0.22 µM. Also, the IC50 in data set [3] is more than 30 µM. Also, the IC50 in data set [4] was determined as 16.17 ± 0.15 µM. Moreover, the IC50 in data set [5] stood at 28.3 ± 0.41 µM.
Compound `Cc1nc(C)c(C(=O)OCCCCOC(=O)[C@]23CCC(C)(C)CC2C2=CCC4[C@@]5(C)CC[C@H](O)[C@@](C)(CO)C5CC[C@@]4(C)[C@]2(C)CC3)nc1C` (stereo partly drawn) [Compound 19, 4-(((4aS,6aS,6bR,9R,10S,12aR)-10-Hydroxy-9-(hydroxymethyl)-2,2,6a,6b,9,12a-hexamethyl-1,2,3,4,4a,5,6,6a,6b,7,8,8a,9,10,11,12,12a,12b,13,14b-icosahydropicene-4a-carbonyl)oxy)butyl-3,5,6-trimethylpyrazine-2-carboxylate] displayed a melting point of 110.1 °C. The IC50 in data set [1] was found to be 9.06 ± 0.32 µM. Moreover, the IC50 in data set [2] was 16.43 ± 0.04 µM. Also, the IC50 in data set [3] was found to be 16.5 ± 0.22 µM. The IC50 in data set [4] amounted to 12.2 ± 0.4 µM. In addition, in data set [5], the IC50 is 27.6 ± 0.52 µM.
`CC1(C)CC[C@]2(C(=O)OCCCCCl)CC[C@]3(C)C(=CCC4[C@@]5(C)CC[C@H](O)[C@@](C)(COC(=O)c6cnccn6)C5CC[C@]43C)C2C1` (stereo partly drawn) [Compound 21, ((3S,4R,6aR,6bS,8aS,14bR)-8a-((4-Chlorobutoxy)carbonyl)-3-hydroxy-4,6a,6b,11,11,14b-hexamethyl-1,2,3,4,4a,5,6,6a,6b,7,8,8a,9,10,11,12,12a,14,14a,14b-icosahydropicen-4-yl)methyl-pyrazine-2-carboxylate] came in with a melting point of 117.1 °C. In data set [1], the IC50 is 7.99 ± 0.12 µM. For the same compound, the IC50 in data set [2] stood at 14.85 ± 0.06 µM. Also, the IC50 in data set [3] amounted to 16.68 ± 0.1 µM. The IC50 in data set [4] was determined as 9.29 ± 0.99 µM. For the same compound, in data set [5], the IC50 was determined as 24.98 ± 0.18 µM.
The compound `Cc1cncc(C(=O)OC[C@@]2(C)C3CC[C@]4(C)C(CC=C5C6CC(C)(C)CC[C@]6(C(=O)OCCCCCl)CC[C@]54C)[C@@]3(C)CC[C@@H]2O)n1` (stereo partly drawn) [Compound 22, ((3S,4R,6aR,6bS,8aS,14bR)-8a-((4-Chlorobutoxy)carbonyl)-3-hydroxy-4,6a,6b,11,11,14b-hexamethyl-1,2,3,4,4a,5,6,6a,6b,7,8,8a,9,10,11,12,12a,14,14a,14b-icosahydropicen-4-yl)methyl 6-methylpyrazine-2-carboxylate] registered a melting point of 126.9 °C. The IC50 in data set [1] is 7.15 ± 0.43 µM. Also, the IC50 in data set [2] was 16.3 ± 1.57 µM. In data set [3], the IC50 amounted to 16.26 ± 0.07 µM. The IC50 in data set [4] came out at 10.4 ± 0.43 µM. Also, in data set [5], the IC50 turned out to be 20.5 ± 3.63 µM.
Compound `Cc1cnc(C(=O)OC[C@@]2(C)C3CC[C@]4(C)C(CC=C5C6CC(C)(C)CC[C@]6(C(=O)OCCCCCl)CC[C@]54C)[C@@]3(C)CC[C@@H]2O)cn1` (stereo partly drawn) [Compound 23, ((3S,4R,6aR,6bS,8aS,14bR)-8a-((4-Chlorobutoxy)carbonyl)-3-hydroxy-4,6a,6b,11,11,14b-hexamethyl-1,2,3,4,4a,5,6,6a,6b,7,8,8a,9,10,11,12,12a,14,14a,14b-icosahydropicen-4-yl)methyl 5-methylpyrazine-2-carboxylate] gave a melting point of 175.8 °C. Further, the IC50 in data set [1] was 7.17 ± 1.09 µM. Further, the IC50 in data set [2] came out at 19.5 ± 2.47 µM. In addition, in data set [3], the IC50 stood at 23.4 ± 0.55 µM. The IC50 in data set [4] turned out to be 18.7 ± 0.32 µM. In data set [5], the IC50 came to 21.3 ± 1.28 µM.
Compound `Cc1nccnc1C(=O)OC[C@@]1(C)C2CC[C@]3(C)C(CC=C4C5CC(C)(C)CC[C@]5(C(=O)OCCCCCl)CC[C@]43C)[C@@]2(C)CC[C@@H]1O` (stereo partly drawn) [Compound 24, ((3S,4R,6aR,6bS,8aS,14bR)-8a-((4-Chlorobutoxy)carbonyl)-3-hydroxy-4,6a,6b,11,11,14b-hexamethyl-1,2,3,4,4a,5,6,6a,6b,7,8,8a,9,10,11,12,12a,14,14a,14b-icosahydropicen-4-yl)methyl 3-methylpyrazine-2-carboxylate] showed a melting point of 106.1 °C. In data set [1], the IC50 was determined as 6.89 ± 0.21 µM. Further, the IC50 in data set [2] was found to be 19.3 ± 1.47 µM. Moreover, the IC50 in data set [3] was 27.9 ± 0.62 µM. In data set [4], the IC50 came out at 22 ± 0.87 µM. For the same compound, the IC50 in data set [5] came out at 17.9 ± 2.8 µM.
Regarding `Cc1ncc(C(=O)OC[C@@]2(C)C3CC[C@]4(C)C(CC=C5C6CC(C)(C)CC[C@]6(C(=O)OCCCCCl)CC[C@]54C)[C@@]3(C)CC[C@@H]2O)nc1C` (stereo partly drawn) [Compound 25, ((3S,4R,6aR,6bS,8aS,14bR)-8a-((4-Chlorobutoxy)carbonyl)-3-hydroxy-4,6a,6b,11,11,14b-hexamethyl-1,2,3,4,4a,5,6,6a,6b,7,8,8a,9,10,11,12,12a,14,14a,14b-icosahydropicen-4-yl)methyl 5,6-dimethylpyrazine-2-carboxylate], the melting point was 123.6 °C. For the same compound, in data set [1], the IC50 was determined as 6.42 ± 0.24 µM. Besides, in data set [2], the IC50 is more than 30 µM. Also, in data set [3], the IC50 is more than 30 µM. Moreover, the IC50 in data set [4] is more than 30 µM. Also, the IC50 in data set [5] came to 15.6 ± 1.41 µM.
`Cc1nc(C)c(C(=O)OC[C@@]2(C)C3CC[C@]4(C)C(CC=C5C6CC(C)(C)CC[C@]6(C(=O)OCCCCCl)CC[C@]54C)[C@@]3(C)CC[C@@H]2O)nc1C` (stereo partly drawn) [Compound 26, ((3S,4R,6aR,6bS,8aS,14bR)-8a-((4-Chlorobutoxy)carbonyl)-3-hydroxy-4,6a,6b,11,11,14b-hexamethyl-1,2,3,4,4a,5,6,6a,6b,7,8,8a,9,10,11,12,12a,14,14a,14b-icosahydropicen-4-yl)methyl 3,5,6-trimethylpyrazine-2-carboxylate] showed a melting point of 168.1 °C. In data set [1], the IC50 is 7.15 ± 0.85 µM. The IC50 in data set [2] was more than 30 µM. The IC50 in data set [3] is more than 30 µM. Moreover, the IC50 in data set [4] is more than 30 µM. Moreover, the IC50 in data set [5] worked out at 18.3 ± 1.16 µM.
